This is an account of results in patent publication US11491175B2, “Synergistic bioactive compositions for enhancing cellular energy” (CELAGENEX RESEARCH (INDIA) PVT. LTD., priority 2019, dated 2022).

“And” between values parts separate entries of the source, which are not always exact repeats. Equal entries are not always repeated.

Assay [1] concerns HepG2 (Human Hepatocyte) cell line. The experiment in a line: In vitro cytotoxicity by MTT colorimetric assay on HepG2 cell line. It is filed as cell-based. As to conditions: for % Inhibition: 72 hours incubation. How it is done: The in vitro cytotoxicity study was performed on HepG2 (Human Hepatocyte) cell line to find a nontoxic concentration of the test substances by MTT colorimetric assay and evaluate their potential on cellular respiration by measuring cellular ATP levels.
About 10 mg of all the test substances (as indicated in Table 1) were separately dissolved with 100 μl of Dimethyl sulfoxide (DMSO) and volume was made up with Dulbecco's Modified Eagle Medium-High glucose (DMEM-HG) supplemented with 2% inactivated Fetal Bovine Serum (FBS) to obtain a stock solution of 1 mg/ml concentration and sterilized by 0.22p, syringe filtration. Serial two-fold dilutions were prepared from the stock for carrying out further studies.
The monolayer cell culture was trypsinized and the cell count was adjusted to 1.0×10^5 cells/ml using Ham's F12 medium containing 10% FBS to obtain a cell suspension. To each well of the 96 well microtitre plate, 0.1 ml of the diluted cell suspension was added. After 24 hours, when a partial monolayer was formed, the supernatant was flicked off, the monolayer was washed once with medium and 100 μl of different concentrations of test substances were added. The plate was then incubated at 37° C. for 72 hours in a 5% CO2 atmosphere, and microscopic examination was carried out and observations were noted every 24 hours.
After 72 hours of incubation, the drug solutions in the wells were discarded and 50 μl of MTT in PBS was added to each well. The plate was gently shaken and incubated for 3 hr at 37° C. in a 5% CO2 atmosphere. The supernatant was removed and 100 μl of 2-propanol was added and the plate was gently shaken to solubilize the formed formazan. The absorbance was measured using a microplate reader at a wavelength of 540 nm. The percentage growth inhibition was calculated using the standard formula. The concentration of test substances needed to inhibit the growth of the cell by 50% i.e., CTC50 values were generated from the dose-response curves.

Assay [2] relates to HepG2 cells. The experiment in a line: Estimation of cellular respiration by measuring cellular ATP levels in HepG2 cells. It is filed as cell-based, Human. Particulars: for Cellular ATP / Percentage enhancement of cellular ATP levels over control: HepG2, 2 hours treatment. How it is done: The test substances were evaluated for their in vitro effect on cellular energy by measuring cellular ATP levels in human Hepatocytes (HepG2) cell line.
HepG2 cells were trypsinized from stock culture flasks and the cell count was adjusted to 1.0×10^5 cells/ml to obtain a cell suspension that was seeded into a 96-well plate. […] After 2 hours of treatment, the plate was washed with phosphate buffer saline. The cellular ATP levels determination was performed according to the instructions given in the kit manual (SIGMA, #MAK190). At the end of the experiment, the optical density was read at 570 nm using microplate reader. From the absorbance values, the cellular ATP levels were estimated using kit protocol and the concentration of cellular ATP in treated groups were determined in comparison to the control groups.

Where [3] appears, read: along with H2O2 (20 μM) (IMP 500 μg/ml, NMN 250 μg/ml, IMP + NMN 500 + 250 μg/ml).
Setting [4] is: substance alone (IMP 500 μg/ml, NMN 250 μg/ml, IMP + NMN 500 μg/ml, H2O2 20 μM).

In the case of `NC(=O)c1ccc[n+]([C@@H]2O[C@H](COP(=O)([O-])O)[C@@H](O)[C@H]2O)c1` [NMN, β-Nicotinamide mononucleotide], the % Inhibition – broadly, the share of the control response that was lost under treatment – worked out at 2.26 ± 1.49% in assay [1] (test conc. 62.5 μg/ml); 21.59 ± 1.89% in assay [1] (test conc. 125 μg/ml); 30.51 ± 0.38% in assay [1] (test conc. 250 μg/ml); 59.95 ± 1.78% in assay [1] (test conc. 500 μg/ml); 76.59 ± 0.54% in assay [1] (test conc. 1000 μg/ml). The “CTC 50” value in assay [1] (72 hours, concentration needed to inhibit cell growth by 50%) is 415 ± 8.99 µg/mL and 415.92 ± 8.99 µg/mL. Besides, the “Cellular ATP” value was 8.28 ± 0.65 nmol in assay [2] (setting [3]) and 4.43 ± 0.23 nmol in assay [2] (setting [4]). Besides, the “Percentage enhancement of cellular ATP levels over control” value was 29.01 ± 4.25% in assay [2] (setting [3]); 13.97±1.25% in assay [2] (substance alone (IMP 500 μg/ml, NMN 250 μg/ml, IMP + NMN 2:1 500 μg/ml), over hydrogen peroxide control); 13.97 ± 1.25% in assay [2] (substance alone (IMP 500 μg/ml, NMN 250 μg/ml, IMP + NMN 2:1 500 μg/ml), over hydrogen peroxide control, listed as G4). In addition, the “cellular ATP levels (in words)” value in assay [2] (HepG2, in combination with Hydrogen peroxide (20 μM)) was “increased the cellular ATP levels significantly”.
On to Hydrogen Peroxide [Composition G2], for which, in assay [2] (setting [4]), the “Cellular ATP” value is 0.86 ± 0.02 nmol.
